{
  "source": "paper PMC6522912",
  "about": "“Evaluation of the published kinase inhibitor set to identify multiple inhibitors of bacterial ATP-dependent mur ligases” (Journal of Enzyme Inhibition and Medicinal Chemistry, 2019)",
  "key": {"E. coli MurD": {"molecular_target": "E. coli MurD (Escherichia coli, UniProt P14900)", "sequence (P14900 whole entry)": "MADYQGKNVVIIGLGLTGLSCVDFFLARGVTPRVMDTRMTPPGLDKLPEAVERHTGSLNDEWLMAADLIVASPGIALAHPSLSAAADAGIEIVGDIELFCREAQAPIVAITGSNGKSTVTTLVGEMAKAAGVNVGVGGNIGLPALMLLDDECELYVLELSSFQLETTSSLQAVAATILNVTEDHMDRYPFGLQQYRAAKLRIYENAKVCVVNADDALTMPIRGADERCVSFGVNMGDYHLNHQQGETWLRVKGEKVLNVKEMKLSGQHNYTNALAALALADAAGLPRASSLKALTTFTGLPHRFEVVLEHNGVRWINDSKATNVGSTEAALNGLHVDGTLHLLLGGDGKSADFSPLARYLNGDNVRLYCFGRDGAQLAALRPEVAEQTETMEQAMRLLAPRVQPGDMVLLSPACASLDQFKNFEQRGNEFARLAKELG", "test": "biochemical", "method_in_brief": "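Orthophosphate released by E. coli MurD quantified by malachite green (Biomol green) absorbance at 650 nm after 15 min at 37 °C. Residual activity relative to DMSO-only controls.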"}, "MurD": {"molecular_target": "MurD (Escherichia coli, UniProt P14900)", "sequence (P14900 whole entry)": "as above", "test": "1H/13C HSQC NMR study of ligand binding", "conditions": "chemical shift perturbations, without and with 2 mM AMP-PCP", "description": "The nuclear magnetic resonance (NMR) spectra were recorded at 25 °C on a spectrometer (DirectDrive 800 MHz; Varian, Slovenian NMR centre at National Institute of Chemistry) equipped with a cryoprobe. The pulse sequences provided in the Varian BioPack library of pulse programmes was used. The samples were prepared in 90% H2O/10% DMSO-d6 buffer containing 20 mM HEPES, 7 mM (NH4)2SO4, 3.5 mM MgCl2, and 2 mM dithiothreitol, pH 7.2. Here, 0.07 mM MurD that was selectively labelled with ^13 C at the methyl groups of Ile (δ1 only), Val and Leu was used. The protein was titrated using compound 1 in MurD:ligand molar ratios of 0.5, 1, 2, 4 and 8, without and with 2 mM β,γ-methyleneadenosine 5'-triphosphate (AMP–PCP). […] The final concentration of DMSO-d6 was 12% (v/v). The variation of DMSO from 10 to 12% (v/v) affects the chemical shift perturbations by <0.02 ppm[31].\nThe heteronuclear single quantum coherence (HSQC) spectra for ^1H/^13C were acquired with 1024 data points in t2, 32 scans, 64 complex points in t1, and relaxation delay of 1 s. […] The spectra were processed and analysed with the Felix 2007 software package (Felix NMR Inc., Laboratory of Biomolecular Structure at National Institute of Chemistry). […] The combined ^1H/^13C chemical shift perturbations (Δδ) were calculated from the ^1H and ^13C chemical shift perturbations using Equation (1)[32]: (1) Δδ=((Δδ^1H)^2+(0.252×Δδ^13C)^2)^1/2. […]"}, "human kinases": {"tested_on": "human kinases", "conditions": "over 200 kinase activity assays and 68 DSF assays; cited from earlier work"}},
  "note": "pIC50: −log10 of the molar value.",
  "data": [
    {"smiles": "Cc1cc(-c2ccco2)cc(C)c1/C=C/c1cncc(-c2nn[nH]n2)c1", "note": "[Compound 1]", "values": [
      {"measurement": "remaining activity at 100 µM", "setting": "E. coli MurD; 0.25 h, Table S1, PKIS screening, read-out: RA [%] at 100 µM MurD", "value": 45, "unit": "%"},
      {"measurement": "pIC50", "setting": "E. coli MurD; Table 1, read-out: MurD IC50", "value": 3.98},
      {"measurement": "LE (MurD)", "setting": "E. coli MurD; ligand efficiency, LE = (1.37 × pIC50)/HAC", "value": 0.21},
      {"measurement": "MurD RA [%]", "setting": "E. coli MurD; residual activity at 100 µM compound, Table 1", "value": 45, "unit": "%"},
      {"measurement": "binding site on MurD", "setting": "MurD", "value": "binds to the D-Glu binding site"},
      {"measurement": "activity at human kinases", "setting": "human kinases", "value": "no appreciable activity"}
    ]}
  ]
}
